Assay results: patent publication US20260083704A1, “LXR MODULATORS WITH BICYCLIC CORE MOIETY FOR TREATING DYSLIPIDEMIAS” (OrsoBio, Inc., priority 2022, published 2026)

How the values were obtained:
[1] = biological target: T1, GST-LXRβ ligand-binding domain (Homo sapiens, UniProt P55055); assay: TR-FRETβ activity assay (NCoA3 coactivator peptide recruitment); type: biochemical; details: 1 μM 24(S)-25-epoxycholesterol prestimulation
T1 construct: amino acids 156-461; NP009052; made in house; host or cells: E. coli
T1 sequence (P55055 156-460 limits assumed): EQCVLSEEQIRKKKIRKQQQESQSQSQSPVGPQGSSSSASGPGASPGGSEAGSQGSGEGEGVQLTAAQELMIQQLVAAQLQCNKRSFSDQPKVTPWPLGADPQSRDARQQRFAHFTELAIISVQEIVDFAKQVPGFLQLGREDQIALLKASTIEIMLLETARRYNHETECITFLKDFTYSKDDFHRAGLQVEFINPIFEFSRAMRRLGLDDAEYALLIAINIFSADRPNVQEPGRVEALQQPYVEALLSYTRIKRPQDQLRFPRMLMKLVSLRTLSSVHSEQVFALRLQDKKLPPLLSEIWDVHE
In short: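 E. coli-expressed GST-LXRβ LBD (aa 156-461, 76 nM) with biotinylated NCoA3 peptide (400 nM) in Tris/HCl pH 6.8 containing 1 μM 24(S)-25-epoxycholesterol agonist. Compounds tested at 50 μM down to 0.002 μM in triplicate. TR-FRET (Tb cryptate/XL665, ex 340, em 615/665 nm) read after 1 h at 4° C.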

LXRβ = biological target: T2, LXRβ (Homo sapiens, UniProt P55055); assay: LXR Gal4 reporter transient transfection assay (mammalian two-hybrid, HEK293), LXRβ; type: cell-based; details: ligand-binding domain (LBD) of LXRβ, HEK293; read-out: LBD-M2H Gal4β
T2 construct: LXRβ (amino acids 156-461); expressed in transfected cells; host or cells: HEK293
T2 sequence (P55055 156-460): T1 sequence (P55055 156-460 limits assumed)
Protocol: LXRα and LXRβ activity status was determined via detection of interaction with coactivator and corepressor proteins in mammalian two-hybrid experiments (M2H). For this, via transient transfection the full length (FL) proteins of LXRα (amino acids 1-447; NP005684; SEQ ID NO:1) or LXRβ-(amino acids 1-461; NP009052; SEQ ID NO:2) or the ligand-binding domains (LBD) of LXRα (amino acids 155-447 SEQ ID NO:3) or LXRβ (amino acids 156-461; SEQ ID NO:4) were expressed from pCMV-AD (Stratagene) as fusions to the transcriptional activation domain of NFkB. As cofactors, domains of either the steroid receptor coactivator 1 (SRC1; amino acids 552-887; SEQ ID NO:5) or of the corepressor NCoR (amino acids 1906-2312; NP006302; SEQ ID NO:6) were expressed as fusions to the DNA binding domain of the yeast transcription factor GAL4 (from pCMV-BD; Stratagene). Interaction was monitored via activation of a coexpressed Firefly Luciferase Reporter gene under control of a promoter containing repetitive GAL4 response elements (vector pFRLuc; Stratagene). Transfection efficiency was controlled via cotransfection of constitutively active pRL-CMV Renilla reniformis luciferase reporter (Promega). HEK293 cells were grown in minimum essential medium (MEM) with 2 mM L-glutamine and Earle's balanced salt solution supplemented with 8.3% fetal bovine serum, 0.1 mM non-essential amino acids, 1 mM sodium pyruvate, at 37° C. in 5% CO2. 3.5×10^4 cells/well were plated in 96-well cell culture plates in growth medium supplemented with 8.3% fetal bovine serum for 16-20 h to ˜90% confluency. For transfection, medium was taken off and LXR and cofactor expressing plasmids as well as the reporter plasmids are added in 30 μL OPTIMEM/well including polyethylene-imine (PEI) as vehicle. Typical amounts of plasmids transfected/well: pCMV-AD-LXR (5 ng), pCMV-BD-cofactor (5 ng), pFR-Luc (100 ng), pRL-CMV (0.5 ng). Compound stocks were prepared in DMSO, prediluted in MEM to a total volume of 120 μL, and added 4 h after addition of the transfection mixture (final vehicle concentration not exceeding 0.2%). Cells were incubated for additional 16 h, lysed for 10 min in 1×Passive Lysis Buffer (Promega) and Firefly and Renilla luciferase activities were measured sequentially in the same cell extract using buffers containing D-luciferine and coelenterazine, respectively. Measurements of luminescence were done in a BMG-luminometer.
The potencies of Compound 21/3 and its analog, Compound pre-6/3, against LXRα and LXRβ were evaluated in biochemical binding assays, cellular mammalian two-hybrid (M2H) interaction assays evaluating nuclear receptor co-repressor (NCOR) recruitment, and cellular reporter assays evaluating transcriptional activity (Table 5).

Structure (SMILES)	EC50 [1] [nM]	EC50 (LXRβ) [nM]
N#Cc1sccc1-c1c(-c2cccs2)n(S(=O)(=O)c2cccc3ccccc23)c2ccccc12 [1/27]	1000 to 10000	< 100
N#Cc1sccc1-c1c(-c2cc(Cl)cc(C3CC3C(=O)O)c2)n(S(=O)(=O)c2ccc(Cl)cc2)c2ccccc12 (centres unmarked) [30/9]	1000 to 10000	< 100
N#Cc1sccc1-c1c(-c2cccs2)n(S(=O)(=O)C2CCCCC2)c2ccccc12 [Compound 24]	1000 to 10000	< 100
N#Cc1sccc1-c1c(-c2cccs2)n(S(=O)(=O)c2ccc(Cl)cc2)c2ccccc12 [20/13]	100 to 1000	< 100
N#Cc1sccc1-c1c(-c2cccc(N3CCC(C(=O)O)C3)c2)n(S(=O)(=O)c2ccc(Cl)cc2)c2ccccc12 (centres unmarked) [30/11]	100 to 1000	< 100
Cc1ccc(S(=O)(=O)n2c(-c3cccc(-c4cccc(C(C)(C)C(=O)O)c4)c3)c(-c3ccsc3C#N)c3ccccc32)cc1 [30/2]	1000 to 10000	100 to 1000
Cc1ccc(S(=O)(=O)n2c(-c3cccc(-c4cccc(C(=O)O)c4)c3)c(-c3ccsc3C#N)c3ccccc32)cc1 [30/1]	100 to 1000	< 100
N#Cc1sccc1-c1c(-c2cccs2)n(S(=O)(=O)c2ccc(CCC(=O)O)cc2)c2ccccc12 [23/1]	1000 to 10000	< 100
CS(=O)(=O)NC(=O)C1CC1c1cccc(-c2c(-c3ccsc3C#N)c3ccccc3n2S(=O)(=O)c2ccc(Cl)cc2)c1 (centres unmarked) [32/1]	100 to 1000	< 100
N#Cc1sccc1-c1c(-c2cccs2)n(S(=O)(=O)c2ccc(Cl)cc2)c2cc(OCCCCC(=O)O)ccc12 [15/5]	1000 to 10000	< 100
N#Cc1c(OCC(=O)O)cccc1-c1c(-c2cccs2)n(S(=O)(=O)c2ccc(Cl)cc2)c2ccccc12 [21/2]	1000 to 10000	1000 to 10000
N#Cc1sccc1-c1c(-c2ccccc2)n(S(=O)(=O)c2ccc(OCC(=O)O)cc2)c2ccccc12 [Compound 27]	1000 to 10000	100 to 1000
Cc1ccc(S(=O)(=O)n2c(-c3cccc(C(C)(C)C(=O)O)c3)c(-c3ccsc3C#N)c3ccccc32)cc1 [3/20]	1000 to 10000	< 100
N#Cc1ccc(OCC(=O)O)cc1-c1c(-c2cccs2)n(S(=O)(=O)c2ccc(Cl)cc2)c2ccccc12 [21/1]	1000 to 10000	1000 to 10000
COc1ccc(S(=O)(=O)n2c(-c3ccccc3)c(C3=C(C#N)c4ccccc4CC3)c3ccccc32)cc1 [20/19]	> 10000	100 to 1000
Cc1ncc(S(=O)(=O)n2c(-c3ccccc3)c(-c3ccsc3C#N)c3ccccc32)s1 [1/42]	1000 to 10000	< 100
N#Cc1cc(F)ccc1-c1c(-c2cccs2)n(S(=O)(=O)c2ccc(Cl)cc2)c2ccccc12 [20/6]	100 to 1000	< 100
Cc1ccc(S(=O)(=O)n2c(-c3cccc(/C=C/C(=O)O)c3)c(-c3ccsc3C#N)c3ccccc32)cc1 [3/18]	1000 to 10000	< 100
N#Cc1sccc1-c1c(-c2cccc(C3CC3C(=O)O)c2)n(S(=O)(=O)C2CC2)c2ccccc12 (centres unmarked) [30/12]	1000 to 10000	100 to 1000
Cn1cnc(S(=O)(=O)n2c(-c3cccs3)c(-c3ccsc3C#N)c3ccccc32)c1 [1/28]	1000 to 10000	< 100
Cc1ccc(S(=O)(=O)n2c(-c3cccc(C4CC4C(=O)O)c3)c(-c3ccsc3F)c3ccccc32)cc1 (centres unmarked) [30/14]	1000 to 10000	100 to 1000
O=C(O)c1sccc1-c1c(-c2cccs2)n(S(=O)(=O)c2ccc(Cl)cc2)c2ccccc12 [Compound 21]	> 10000	1000 to 10000

Structure (SMILES)	EC50 [1] [nM]	EC50 (LXRβ) [nM]
N#Cc1sccc1-c1c(-c2cccs2)n(S(=O)(=O)c2ccc(F)cc2)c2ccccc12 [20/11]	100 to 1000	< 100
N#Cc1sccc1-c1c(-c2cccc(N3CC(C(=O)O)C3)c2)n(S(=O)(=O)c2ccccc2)c2ccc(F)cc12 [3/9]	1000 to 10000	< 100
COc1ccc2c(-c3ccsc3C#N)c(-c3cccs3)n(S(=O)(=O)c3ccc(Cl)cc3)c2c1 [1/40]	1000 to 10000	< 100
N#Cc1sccc1-c1c(-c2cccs2)n(S(=O)(=O)c2ccc(Cl)cc2)c2ccc(OCCCC(=O)O)cc12 [15/1]	1000 to 10000	100 to 1000
N#Cc1sccc1-c1c(-c2cccs2)n(S(=O)(=O)c2ccc(Cl)cc2)c2cc(O)ccc12 [13/1]	1000 to 10000	< 100
N#Cc1sccc1-c1c(-c2cccs2)n(S(=O)(=O)c2ccc(Cl)cc2)c2cc(OCCCC(=O)O)ccc12 [15/4]	1000 to 10000	< 100
Cc1ccc(S(=O)(=O)n2c(-c3ccc(CC(C)(C)C(=O)O)s3)c(-c3ccsc3C#N)c3ccccc32)cc1 [3/16]	1000 to 10000	100 to 1000
N#Cc1sccc1-c1c(-c2cccs2)n(S(=O)(=O)c2ccc(Cl)cc2)c2cc(CCC(=O)O)c(O)cc12 [Compound 17]	> 10000	1000 to 10000
CS(=O)(=O)c1ccccc1-c1c(-c2cccs2)n(S(=O)(=O)c2ccc(Cl)cc2)c2ccccc12 [20/5]	1000 to 10000	100 to 1000
Cc1ccc(S(=O)(=O)n2c(-c3cc(C4CC4C(=O)O)cs3)c(-c3ccsc3C#N)c3ccccc32)cc1 (centres unmarked) [3/17]	1000 to 10000	< 100
N#Cc1sccc1-c1c(-c2cccs2)n(S(=O)(=O)c2ccc(Cl)cc2)c2ccc(OCCCCC(=O)O)cc12 [15/2]	> 10000	100 to 1000
COc1ccc(S(=O)(=O)n2c(-c3ccccc3)c(-c3ccsc3C)c3ccccc32)cc1 [20/21]	1000 to 10000	< 100
N#Cc1sccc1-c1c(-c2cccs2)n(S(=O)(=O)c2ccc(F)cc2F)c2ccccc12 [20/12]	1000 to 10000	< 100
N#Cc1ccncc1-c1c(-c2cccs2)n(S(=O)(=O)c2ccc(Cl)cc2)c2ccccc12 [20/2]	1000 to 10000	< 100
COc1ccc(S(=O)(=O)n2c(-c3ccc(CCC(=O)O)cc3)c(-c3ccsc3C#N)c3ccccc32)cc1 [15/6]	1000 to 10000	100 to 1000
COc1ccc(S(=O)(=O)n2c(-c3ccccc3)c(-c3ccc4ncccc4c3C#N)c3ccccc32)cc1 [20/20]	1000 to 10000	100 to 1000
COC(=O)CCc1ccc(S(=O)(=O)n2c(-c3cccs3)c(-c3ccsc3C#N)c3ccccc32)cc1 [20/15]	100 to 1000	100 to 1000
N#Cc1sccc1-c1c(-c2cccc(OCCC(=O)O)n2)n(S(=O)(=O)c2ccc(Cl)cc2)c2ccccc12 [Compound 31]	1000 to 10000	100 to 1000
N#Cc1sccc1-c1c(-c2ccccc2)n(S(=O)(=O)c2ccc(Cl)cc2)c2ccccc12 [Compound 26]	100 to 1000	< 100
N#Cc1sccc1-c1c(-c2cccc(OCC(=O)O)c2)n(S(=O)(=O)c2ccc(Cl)cc2)c2ccccc12 [3/51]	1000 to 10000	100 to 1000
COc1ccc(S(=O)(=O)n2c(-c3ccccc3)c(C3=C(C#N)CCCC3)c3ccccc32)cc1 [20/16]	1000 to 10000	100 to 1000
